From patent US10112937B2, “P2X7 modulators and methods of use” (Janssen Pharmaceutica NV, priority 2013, dated 2018) come the findings set out here.

What all share (assay type): cell-based
Assay [1] addresses T1, human P2X7 (Homo sapiens (Human), UniProt Q99572). Description: P2X7 antagonism in human PBMCs (IL-1β release after LPS + Bz-ATP, ELISA). The settings on record: human PBMCs. In general terms: An ELISA detects its analyte on a solid surface through an enzyme-linked reagent.
Assay [2] has as its target T1, human P2X7. The assay can be described thus: Ca2+ flux (FLIPR) in 1321N1 cells expressing recombinant human P2X7.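 Also: cells loaded with Calcium-4 dye, preincubated with test compound for 30 min, fluorescence change read 180 s after agonist addition.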 Background: Calcium assays in cells follow changes in intracellular calcium, usually with a dye or a luminescent sensor.
Experimental: P2X7 Antagonism in Recombinant Human P2X7 Cells or Recombinant Rat P2X7 Cells: (a) Ca^2+ Flux and (b) Radioligand Binding
1321N1 cells expressing the recombinant human or rat P2X7 channel was cultured in HyQ DME/(HyClone/Dulbecco's Modified Eagle Medium) high glucose supplemented with 10% Fetal Bovine Serum (FBS) and appropriate selection marker. Cells were seeded at a density of 25000 cells/well (96-well clear bottom black walled plates) in 100 μl volume/well. On the day of the experiment, cell plates were washed with assay buffer, containing (in mM): 130 NaCl, 2 KCl, 1 CaCl2, 1 MgCl2, 10 HEPES, 5 glucose; pH 7.40 and 300 mOs. After the wash, cells were loaded with the Calcium-4 dye (Molecular Device) and incubated in the dark for 60 minutes. Test compounds were prepared at 250× the test concentration in neat DMSO. Intermediate 96-well compound plates were prepared by transferring 1.2 μL of the compound into 300 μL of assay buffer. A further 3× dilution occurred when transferring 50 μL/well of the compound plate to 100 μL/well in the cell plate. Cells were incubated with test compounds and dye for 30 minutes. […] The fluorescence change was measured 180 seconds after adding the agonist.
Another assay concerns the target rat P2X7 (Rattus norvegicus (Rat), UniProt Q64663). Description: Ca2+ flux (FLIPR) in 1321N1 cells expressing recombinant rat P2X7.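 Also: Calcium-4 dye fluorescence change read 180 s after agonist addition, with cells preincubated 30 min with compound and dye in 96-well plates.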
The mark [3] stands for this setting: 1321N1 cells, recombinant human P2X7, 250 μM BzATP.
Where [4] appears, read: 1321N1 cells, recombinant rat P2X7, 250 μM BzATP.
Setting [5] is: 10 μM test compound, LPS + Bz-ATP.
The mark [6] stands for this setting: Ca2+ flux, 250 μM BzATP, human P2X7 1321N1 cells.
Setting [7] is: Ca2+ flux, 250 μM BzATP, rat P2X7 1321N1 cells.

Sequence of rat P2X7 (Q64663 whole entry): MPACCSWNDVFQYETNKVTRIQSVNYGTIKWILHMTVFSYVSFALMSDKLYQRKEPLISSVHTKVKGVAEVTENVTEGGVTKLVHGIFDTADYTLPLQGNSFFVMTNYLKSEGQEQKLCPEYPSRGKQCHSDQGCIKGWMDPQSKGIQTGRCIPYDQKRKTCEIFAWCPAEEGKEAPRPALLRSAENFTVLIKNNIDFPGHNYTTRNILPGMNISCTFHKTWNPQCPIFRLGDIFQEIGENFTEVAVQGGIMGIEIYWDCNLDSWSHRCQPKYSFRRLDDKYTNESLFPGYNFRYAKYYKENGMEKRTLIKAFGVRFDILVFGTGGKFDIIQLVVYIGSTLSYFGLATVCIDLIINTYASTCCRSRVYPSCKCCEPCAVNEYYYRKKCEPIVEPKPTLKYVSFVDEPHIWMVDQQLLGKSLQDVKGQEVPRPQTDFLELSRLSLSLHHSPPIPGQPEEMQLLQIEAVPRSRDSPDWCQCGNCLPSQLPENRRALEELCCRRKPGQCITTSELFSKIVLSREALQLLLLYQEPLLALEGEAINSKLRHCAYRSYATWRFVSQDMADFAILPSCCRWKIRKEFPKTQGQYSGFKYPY
T1 sequence (Q99572 whole entry): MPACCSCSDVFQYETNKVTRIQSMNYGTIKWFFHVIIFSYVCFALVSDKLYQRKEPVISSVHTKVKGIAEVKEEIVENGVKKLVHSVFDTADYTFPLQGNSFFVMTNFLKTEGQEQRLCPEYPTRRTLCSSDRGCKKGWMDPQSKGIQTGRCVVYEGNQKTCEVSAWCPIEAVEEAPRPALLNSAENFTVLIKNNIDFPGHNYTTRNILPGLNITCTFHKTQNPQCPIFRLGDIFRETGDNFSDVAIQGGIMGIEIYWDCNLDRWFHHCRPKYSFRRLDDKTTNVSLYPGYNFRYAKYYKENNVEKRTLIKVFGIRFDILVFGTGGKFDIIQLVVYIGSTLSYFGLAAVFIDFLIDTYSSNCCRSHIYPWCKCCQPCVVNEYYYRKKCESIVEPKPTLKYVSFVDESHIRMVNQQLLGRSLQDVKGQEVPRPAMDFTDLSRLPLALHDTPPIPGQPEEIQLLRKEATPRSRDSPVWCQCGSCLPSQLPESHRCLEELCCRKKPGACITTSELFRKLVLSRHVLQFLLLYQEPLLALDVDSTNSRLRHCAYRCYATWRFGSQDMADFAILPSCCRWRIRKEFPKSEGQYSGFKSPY

As for `Cc1nccc(-n2nnc3c2CCN(C(=O)c2cccc(C(F)(F)F)c2Cl)C3C)n1` (stereo not drawn) [Example 398, (2-chloro-3-(trifluoromethyl)phenyl)(4-methyl-1-(2-methylpyrimidin-4-yl)-6,7-dihydro-1H-[1,2,3]triazolo[4,5-c]pyridin-5(4H)-yl)methanone], on human P2X7 [1] (test compound 10 μM), the “PBMC 10 μM (% control)” value was 0.2 % control. The IC50 (commonly the midpoint of a concentration-inhibition curve) at human P2X7 [2] (setting [3]) was 538 nM; at rat P2X7 (setting [4]), greater than 10000 nM.
As for `Cc1c(C(=O)N2CCc3c(nnn3-c3ncccn3)C2)cccc1C(F)(F)F` [Example 281, (2-methyl-3-(trifluoromethyl)phenyl)(1-(pyrimidin-2-yl)-6,7-dihydro-1H-[1,2,3]triazolo[4,5-c]pyridin-5(4H)-yl)methanone], on human P2X7 [1] (test compound 10 μM), the “PBMC 10 μM (% control)” value is listed as −1.9 % control. Moreover, the half-inhibitory concentration (IC50) came out at 2.2 nM on human P2X7 [2] (setting [3]) and 349 nM on rat P2X7 (setting [4]).
For `CCn1ccc(-n2nnc3c2CCN(C(=O)c2cccc(C(F)(F)F)c2Cl)[C@H]3C)n1` [Example 405, (S)-(2-chloro-3-(trifluoromethyl)phenyl)(1-(1-ethyl-1H-pyrazol-3-yl)-4-methyl-6,7-dihydro-1H-[1,2,3]triazolo[4,5-c]pyridin-5(4H)-yl)methanone], the “PBMC 10 μM (% control)” value on human P2X7 [1] (setting [5]) is on record as −0.4 % control. In addition, the concentration for half-maximal inhibition (IC50) was determined as 1600 nM at human P2X7 [2] (setting [6]) and 2300 nM on rat P2X7 (setting [7]).
Take `Cc1cc(-n2nnc3c2CCN(C(=O)c2cc(Cl)cc(C(F)(F)F)c2)[C@@H]3C)ncc1F` (single isomer, unassigned) [Example 362, (R*)-(3-chloro-5-(trifluoromethyl)phenyl)(1-(5-fluoro-4-methylpyridin-2-yl)-4-methyl-6,7-dihydro-1H-[1,2,3]triazolo[4,5-c]pyridin-5(4H)-yl)methanone]: the “PBMC 10 μM (% control)” value on human P2X7 [1] (test compound 10 μM) is 90.2 % control. Also, the IC50 at human P2X7 [2] (setting [3]) and on rat P2X7 (setting [4]) was greater than 10000 nM each time.
As to `C[C@H]1Cc2c(nnn2-c2cc[nH]n2)CN1C(=O)c1ccnc(C(F)(F)F)c1F` (single isomer, unassigned) [Example 424, (S*)-(3-fluoro-2-(trifluoromethyl)pyridin-4-yl)(6-methyl-1-(1H-pyrazol-3-yl)-6,7-dihydro-1H-[1,2,3]triazolo[4,5-c]pyridin-5(4H)-yl)methanone], on human P2X7 [1] (setting [5]), the “PBMC 10 μM (% control)” value is −11.2 % control. Further, the IC50 came to 14 nM on human P2X7 [2] (setting [6]) and 4.6 nM at rat P2X7 (setting [7]).
For `Cc1cc(-n2nnc3c2CCN(C(=O)c2ccnc(C(F)(F)F)c2Cl)C3C)ncn1` (stereo not drawn) [Example 403, (3-chloro-2-(trifluoromethyl)pyridin-4-yl)(4-methyl-1-(6-methylpyrimidin-4-yl)-6,7-dihydro-1H-[1,2,3]triazolo[4,5-c]pyridin-5(4H)-yl)methanone], on human P2X7 [1] (test compound 10 μM), the “PBMC 10 μM (% control)” value is −0.2 % control. For the same compound, the concentration for half-maximal inhibition (IC50) on human P2X7 [2] (setting [3]) came out at 436 nM; on rat P2X7 (setting [4]) it was 12500 nM.
`O=C(c1cccc(Cl)c1Cl)N1CCc2c(nnn2-c2ncccn2)C1` [Example 67, 5-[(2,3-Dichlorophenyl)carbonyl]-1-pyrimidin-2-yl-4,5,6,7-tetrahydro-1H-[1,2,3]triazolo[4,5-c]pyridine]: the “PBMC 10 μM (% control)” value at human P2X7 [1] (test compound 10 μM) worked out at 6.5 % control. Also, the IC50 on human P2X7 [2] (setting [3]) stood at 2 nM; at rat P2X7 (setting [4]) it was 53 nM.
With `CC(C)n1ccc(-n2nnc3c2C[C@H](C)N(C(=O)c2ccnc(C(F)(F)F)c2Cl)C3)n1` [Example 416, (S)-(3-chloro-2-(trifluoromethyl)pyridin-4-yl)(1-(1-isopropyl-1H-pyrazol-3-yl)-6-methyl-6,7-dihydro-1H-[1,2,3]triazolo[4,5-c]pyridin-5(4H)-yl)methanone], the “PBMC 10 μM (% control)” value at human P2X7 [1] (setting [5]) is 1.9 % control. The IC50 at human P2X7 [2] (setting [6]) came out at 47.3 nM; on rat P2X7 (setting [7]) it was 8.1 nM.
On to `C[C@H]1c2nnn(-c3ccsc3)c2CCN1C(=O)c1cccc(C(F)(F)F)c1Cl` [Example 421, (S)-(2-chloro-3-(trifluoromethyl)phenyl)(4-methyl-1-(thiophen-3-yl)-6,7-dihydro-1H-[1,2,3]triazolo[4,5-c]pyridin-5(4H)-yl)methanone], for which the “PBMC 10 μM (% control)” value on human P2X7 [1] (setting [5]) is reported as −1.4 % control. Further, the IC50 on human P2X7 [2] (setting [6]) was 1030 nM; on rat P2X7 (setting [7]), greater than 10000 nM.
Turning to `Cc1cc(-n2nnc3c2CCN(C(=O)c2cc(Cl)cc(C(F)(F)F)c2)C3C)ncc1F` (stereo not drawn) [Example 361, (3-chloro-5-(trifluoromethyl)phenyl)(1-(5-fluoro-4-methylpyridin-2-yl)-4-methyl-6,7-dihydro-1H-[1,2,3]triazolo[4,5-c]pyridin-5(4H)-yl)methanone], on human P2X7 [1] (test compound 10 μM), the “PBMC 10 μM (% control)” value was determined as 75.3 % control. Further, the IC50 on human P2X7 [2] (setting [3]) and on rat P2X7 (setting [4]) was greater than 10000 nM in each case.
For the compound `CC(C)n1ccc(-n2nnc3c2CCN(C(=O)c2ccnc(C(F)(F)F)c2F)[C@H]3C)n1` [Example 419, (S)-(3-fluoro-2-(trifluoromethyl)pyridin-4-yl)(1-(1-isopropyl-1H-pyrazol-3-yl)-4-methyl-6,7-dihydro-1H-[1,2,3]triazolo[4,5-c]pyridin-5(4H)-yl)methanone], the “PBMC 10 μM (% control)” value on human P2X7 [1] (setting [5]) is listed as −0.4 % control. Further, the IC50 on human P2X7 [2] (setting [6]) worked out at 92 nM; at rat P2X7 (setting [7]) it was 15.7 nM.
On to `CC(C)n1ccc(-n2nnc3c2C[C@H](C)N(C(=O)c2cccc(C(F)(F)F)c2F)C3)n1` [Example 414, (S)-(2-fluoro-3-(trifluoromethyl)phenyl)(1-(1-isopropyl-1H-pyrazol-3-yl)-6-methyl-6,7-dihydro-1H-[1,2,3]triazolo[4,5-c]pyridin-5(4H)-yl)methanone], for which the “PBMC 10 μM (% control)” value on human P2X7 [1] (setting [5]) turned out to be 22.4 % control. Moreover, the IC50 is greater than 10000 nM at human P2X7 [2] (setting [6]) and 36600 nM at rat P2X7 (setting [7]).
Regarding `O=C(c1cccc(C(F)(F)F)c1F)N1CCc2c(nnn2-c2ncccn2)C1` [Example 66, 5-{[2-Fluoro-3-(trifluoromethyl)phenyl]carbonyl}-1-pyrimidin-2-yl-4,5,6,7-tetrahydro-1H-[1,2,3]triazolo[4,5-c]pyridine], the “PBMC 10 μM (% control)” value at human P2X7 [1] (test compound 10 μM) stood at 2.7 % control. For the same compound, the results for the half-inhibitory concentration (IC50) on human P2X7 [2] (setting [3]) and at rat P2X7 (setting [4]) were 22.4 nM and 258 nM, respectively.
In the case of `Cc1nccc(-n2nnc3c2CCN(C(=O)c2cccc(C(F)(F)F)c2F)C3C)n1` (stereo not drawn) [Example 400, (2-fluoro-3-(trifluoromethyl)phenyl)(4-methyl-1-(2-methylpyrimidin-4-yl)-6,7-dihydro-1H-[1,2,3]triazolo[4,5-c]pyridin-5(4H)-yl)methanone], on human P2X7 [1] (test compound 10 μM), the “PBMC 10 μM (% control)” value came to 32.0 % control. In addition, the IC50 on human P2X7 [2] (setting [3]) was 16900 nM; at rat P2X7 (setting [4]) it was greater than 10000 nM.
With `CC(C)n1ccc(-n2nnc3c2C[C@H](C)N(C(=O)c2cccc(C(F)(F)F)c2Cl)C3)n1` [Example 412, (S)-(2-chloro-3-(trifluoromethyl)phenyl)(1-(1-isopropyl-1H-pyrazol-3-yl)-6-methyl-6,7-dihydro-1H-[1,2,3]triazolo[4,5-c]pyridin-5(4H)-yl)methanone], the “PBMC 10 μM (% control)” value on human P2X7 [1] (setting [5]) is recorded as −12.6 % control. Further, the 50% inhibitory concentration (IC50) on human P2X7 [2] (setting [6]) was determined as 28.3 nM; at rat P2X7 (setting [7]), 4.1 nM.
As to `CCOC(=O)C1c2ncn(-c3ccccc3)c2CCN1C(=O)c1cccc(C(F)(F)F)c1Cl` (stereo not drawn) [Example 26, Ethyl 5-(2-chloro-3-(trifluoromethyl)benzoyl)-1-phenyl-4,5,6,7-tetrahydro-1H-imidazo[4,5-c]pyridine-4-carboxylate], the “PBMC 1 μM (% control)” value on human P2X7 [1] (test compound 1 μM) amounted to 14.0 % control. In addition, the IC50 at human P2X7 [2] (setting [3]) was determined as 7.7 nM; at rat P2X7 (setting [4]), 54.9 nM.
